# According to patent US20090098130A1, “GLUCAGON-LIKE PROTEIN-1 RECEPTOR (GLP-1R) AGONIST COMPOUNDS” (priority 2007, published 2009):
# Non-standard residues stand in square brackets, D forms with d. Residues, ends and D or L forms follow the SMILES beside them. Aib = CC(C)(N)C(=O)O
# Test system: pancreatic β cells
# Experiment: glucose-stimulated insulin secretion (GSIS) assay
# Type: cell-based
# Settings: GA targeting agent-linker conjugate; GSIS assay in vitro
# Procedure: Briefly, glucose and GA targeting peptide was added at various concentrations to pancreatic β cell cultures, and insulin secretion was detected by measuring insulin levels over time. EC50 was calculated for each peptide.
# The ability of these GA targeting agent-linker conjugates to stimulate […] secretion in vitro was measured using the GSIS assay described in Example 27. […] Each of these peptides contained a side-chain modified Lys residue according to the scheme illustrated in FIG. 30 at a different position.
row,EC50 [µM],SMILES
1,< 10,CC[C@H](C)[C@H](NC(=O)[C@H](Cc1ccccc1)NC(=O)[C@H](CCC(=O)O)NC(=O)[C@H](CCCCN)NC(=O)[C@@H](NC(=O)[C@H](C)NC(=O)[C@H](CCC(N)=O)NC(=O)[C@H](CCC(=O)O)NC(=O)[C@H](CCC(=O)O)NC(=O)[C@H](CC(C)C)NC(=O)[C@H](Cc1ccc(O)cc1)NC(=O)[C@H](CO)NC(=O)[C@H](CO)NC(=O)[C@@H](NC(=O)[C@H](CC(=O)O)NC(=O)[C@H](CO)NC(=O)[C@@H](NC(=O)[C@H](Cc1ccccc1)NC(=O)[C@@H](NC(=O)CNC(=O)[C@H](CCC(=O)O)NC(=O)C(C)(C)NC(=O)[C@H](Cc1c[nH]cn1)NC(=O)Cc1cccc(N)c1)[C@@H](C)O)[C@@H](C)O)C(C)C)C(C)C)C(=O)N[C@@H](C)C(=O)N[C@@H](Cc1c[nH]c2ccccc12)C(=O)N[C@@H](CC(C)C)C(=O)N[C@H](C(=O)N[C@@H](CCCCN)C(=O)NC(C)(C)C(=O)N[C@@H](CCCNC(=N)N)C(N)=O)[C@@H](C)CC

# Same assay, conditions: GA targeting peptide; insulin secretion from pancreatic β cell cultures in vitro with glucose
row,EC50 [µM],SMILES
1,< 10,CC[C@H](C)[C@H](NC(=O)[C@H](C)NC(=O)[C@H](CCC(N)=O)NC(=O)CNC(=O)[C@H](CCC(=O)O)NC(=O)[C@H](CC(C)C)NC(=O)[C@H](Cc1ccc(O)cc1)NC(=O)[C@H](CO)NC(=O)[C@H](CO)NC(=O)[C@@H](NC(=O)[C@H](CC(=O)O)NC(=O)[C@H](CO)NC(=O)[C@@H](NC(=O)[C@H](Cc1ccccc1)NC(=O)[C@@H](NC(=O)CNC(=O)[C@H](CCC(=O)O)NC(=O)C(C)(C)NC(=O)[C@@H](N)Cc1c[nH]cn1)[C@@H](C)O)[C@@H](C)O)C(C)C)C(=O)N[C@@H](CCCCN)C(=O)N[C@@H](CCC(=O)O)C(=O)N[C@@H](Cc1ccccc1)C(=O)N[C@H](C(=O)N[C@@H](C)C(=O)N[C@@H](Cc1c[nH]c2ccccc12)C(=O)N[C@@H](CC(C)C)C(=O)N[C@H](C(=O)N[C@@H](CCCCN)C(=O)NC(C)(C)C(=O)N[C@@H](CCCNC(=N)N)C(N)=O)C(C)C)[C@@H](C)CC [SEQ ID NO: 49] (H-H[Aib]EGTFTSDVSSYLEGQAIKEFIAWLVK[Aib]R-NH2)
2,< 10,CC[C@H](C)[C@H](NC(=O)[C@H](Cc1ccccc1)NC(=O)[C@H](CCC(=O)O)NC(=O)[C@H](CCCCN)NC(=O)[C@H](C)NC(=O)[C@H](C)NC(=O)[C@H](CCC(N)=O)NC(=O)[C@H](CCCCN)NC(=O)[C@H](CCC(=O)O)NC(=O)[C@H](CC(C)C)NC(=O)[C@H](Cc1ccc(O)cc1)NC(=O)[C@H](CO)NC(=O)[C@H](CO)NC(=O)[C@@H](NC(=O)[C@H](CC(=O)O)NC(=O)[C@H](CO)NC(=O)[C@@H](NC(=O)[C@H](Cc1ccccc1)NC(=O)[C@@H](NC(=O)CNC(=O)[C@H](CCC(=O)O)NC(=O)C(C)(C)NC(=O)[C@@H](N)Cc1c[nH]cn1)[C@@H](C)O)[C@@H](C)O)C(C)C)C(=O)N[C@@H](C)C(=O)N[C@@H](Cc1c[nH]c2ccccc12)C(=O)N[C@@H](CC(C)C)C(=O)N[C@H](C(=O)N[C@@H](CCCCN)C(=O)NC(C)(C)C(=O)N[C@@H](CCCNC(=N)N)C(N)=O)C(C)C [SEQ ID NO: 47] (H-H[Aib]EGTFTSDVSSYLEKQAAKEFIAWLVK[Aib]R-NH2)
3,< 10,CC[C@H](C)[C@H](NC(=O)[C@H](Cc1ccccc1)NC(=O)[C@H](CCC(=O)O)NC(=O)[C@H](CCCCN)NC(=O)[C@H](C)NC(=O)[C@H](C)NC(=O)[C@H](CCC(N)=O)NC(=O)[C@H](CCC(=O)O)NC(=O)[C@H](CCC(=O)O)NC(=O)[C@H](CC(C)C)NC(=O)[C@H](Cc1ccc(O)cc1)NC(=O)[C@H](CO)NC(=O)[C@H](CO)NC(=O)[C@@H](NC(=O)[C@H](CC(=O)O)NC(=O)[C@H](CO)NC(=O)[C@@H](NC(=O)[C@H](Cc1ccccc1)NC(=O)[C@@H](NC(=O)CNC(=O)[C@H](CCC(=O)O)NC(=O)C(C)(C)NC(=O)[C@@H](N)Cc1c[nH]cn1)[C@@H](C)O)[C@@H](C)O)C(C)C)C(=O)N[C@@H](C)C(=O)N[C@@H](Cc1c[nH]c2ccccc12)C(=O)N[C@@H](CC(C)C)C(=O)N[C@H](C(=O)N[C@@H](CCCCN)C(=O)NC(C)(C)C(=O)N[C@@H](CCCNC(=N)N)C(N)=O)C(C)C [SEQ ID NO: 45] (H-H[Aib]EGTFTSDVSSYLEEQAAKEFIAWLVK[Aib]R-NH2)
4,< 10,CC[C@H](C)[C@H](NC(=O)[C@H](Cc1ccccc1)NC(=O)[C@H](CCC(=O)O)NC(=O)[C@H](CCCCN)NC(=O)[C@@H](NC(=O)[C@H](C)NC(=O)[C@H](CCC(N)=O)NC(=O)[C@H](CCC(=O)O)NC(=O)[C@H](CCC(=O)O)NC(=O)[C@H](Cc1c[nH]c2ccccc12)NC(=O)[C@H](Cc1ccc(O)cc1)NC(=O)[C@H](CO)NC(=O)[C@H](CO)NC(=O)[C@@H](NC(=O)[C@H](CC(=O)O)NC(=O)[C@H](CO)NC(=O)[C@@H](NC(=O)[C@H](Cc1ccccc1)NC(=O)[C@@H](NC(=O)CNC(=O)[C@H](CCC(=O)O)NC(=O)C(C)(C)NC(=O)[C@@H](N)Cc1c[nH]cn1)[C@@H](C)O)[C@@H](C)O)C(C)C)C(C)C)C(=O)N[C@@H](C)C(=O)N[C@@H](Cc1c[nH]c2ccccc12)C(=O)N[C@@H](CC(C)C)C(=O)N[C@H](C(=O)N[C@@H](CCCCN)C(=O)NC(C)(C)C(=O)N[C@@H](CCCNC(=N)N)C(N)=O)[C@@H](C)CC [SEQ ID NO: 60] (H-H[Aib]EGTFTSDVSSYWEEQAVKEFIAWLIK[Aib]R-NH2)

# Continued, molecule first:
row,SMILES,EC50 [µM]
1,CC[C@H](C)[C@H](NC(=O)[C@H](Cc1ccccc1)NC(=O)[C@H](CCC(=O)O)NC(=O)[C@H](CCCCN)NC(=O)[C@H](C)NC(=O)[C@H](C)NC(=O)[C@H](CCC(N)=O)NC(=O)CNC(=O)[C@H](CCC(=O)O)NC(=O)[C@H](CC(C)C)NC(=O)[C@H](Cc1ccc(O)cc1)NC(=O)[C@H](CO)NC(=O)[C@H](CO)NC(=O)[C@@H](NC(=O)[C@H](CC(=O)O)NC(=O)[C@H](CO)NC(=O)[C@@H](NC(=O)[C@H](Cc1ccccc1)NC(=O)[C@@H](NC(=O)CNC(=O)[C@H](CCC(=O)O)NC(=O)C(C)(C)NC(=O)[C@@H](N)Cc1c[nH]cn1)[C@@H](C)O)[C@@H](C)O)C(C)C)C(=O)N[C@@H](C)C(=O)N[C@@H](Cc1c[nH]c2ccccc12)C(=O)N[C@@H](CC(C)C)C(=O)N[C@H](C(=O)N[C@@H](CCCCN)C(=O)NC(C)(C)C(=O)N[C@@H](CCCNC(=N)N)C(N)=O)[C@@H](C)CC [SEQ ID NO: 54],< 10
2,CC[C@H](C)[C@H](NC(=O)[C@H](Cc1ccccc1)NC(=O)[C@H](CCC(=O)O)NC(=O)[C@H](CCCCN)NC(=O)[C@H](CC(C)C)NC(=O)[C@H](C)NC(=O)[C@H](CCC(N)=O)NC(=O)CNC(=O)[C@H](CCC(=O)O)NC(=O)[C@H](CC(C)C)NC(=O)[C@H](Cc1ccc(O)cc1)NC(=O)[C@H](CO)NC(=O)[C@H](CO)NC(=O)[C@@H](NC(=O)[C@H](CC(=O)O)NC(=O)[C@H](CO)NC(=O)[C@@H](NC(=O)[C@H](Cc1ccccc1)NC(=O)[C@@H](NC(=O)CNC(=O)[C@H](CCC(=O)O)NC(=O)C(C)(C)NC(=O)[C@@H](N)Cc1c[nH]cn1)[C@@H](C)O)[C@@H](C)O)C(C)C)C(=O)N[C@@H](C)C(=O)N[C@@H](Cc1c[nH]c2ccccc12)C(=O)N[C@@H](CC(C)C)C(=O)N[C@H](C(=O)N[C@@H](CCCCN)C(=O)NC(C)(C)C(=O)N[C@@H](CCCNC(=N)N)C(N)=O)C(C)C [SEQ ID NO: 50] (H-H[Aib]EGTFTSDVSSYLEGQALKEFIAWLVK[Aib]R-NH2),< 10
